Holding throughout (type): cell-based
Assay [1] has as its target T1, EGFR-L858R/C797S (H1975-clone #8 cells) (Homo sapiens, UniProt P00533, C797S/L858R).
T1 construct: expressed in transfected cells; host or cells: H1975 (endogenous EGFR knocked out, clone #8)
In words: Cell degradation of EGFR, HTRF assay, H1975-clone#8 (L858R/C797S) cells. Conditions: 16 h treatment; for DC50: EGFR degradation; for Dmax: maximum percentage of degradation. For orientation: TR-FRET usually uses a lanthanide donor and a delayed reading to cut background.

Assay [2] deals with p-EGFR Del19/C797S (H1975-clone #23 cells) (Homo sapiens, UniProt P00533). In words: Cell p-EGFR inhibition assay, HTRF, H1975-clone#23 (DEL19/C797S) cells. Conditions: 16 h treatment; for Imax (%): maximum percentage of pEGFR inhibition; for IC50: pEGFR inhibition. In a few lines:
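Phospho-EGFR read by overnight HTRF on lysates, normalized to DMSO-treated high control; IC50, Hill slope and Imax fitted. Compounds were applied for 16 h (10 uM top, 5-fold steps, 8 doses) to an H1975 single clone carrying only exogenous Del19/C797S EGFR after sgRNA knockout of endogenous copies.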

Assay [3] has as its target T2, EGFR L858R (BaF3-L858R cells) (Homo sapiens, UniProt P00533, L858R).
T2 construct: host or cells: BaF3
In words: Cell degradation of EGFR, HTRF assay, BaF3-L858R cells. Conditions: 16 h treatment; for DC50: EGFR degradation; for Dmax: maximum percentage of degradation. In a few lines:
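EGFR L858R levels measured by HTRF antibody pair in lysed BaF3-L858R cells after 16 h compound exposure (8-point 5-fold series from 10 uM final, 37° C). Degradation is relative to DMSO-only cells; DC50 fitted with Hill equation, Dmax taken as the largest percent loss.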

Assay [4] has as its target T3, p-EGFR L858R (BaF3-L858R cells) (Homo sapiens, UniProt P00533, L858R).
T3 construct: host or cells: BaF3
Kind of assay: Cell p-EGFR inhibition assay, HTRF, BaF3-L858R cells. The note with it: 16 h treatment; for Imax (%): maximum percentage of pEGFR inhibition; for IC50: pEGFR inhibition. In a few lines:
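BaF3-L858R cells treated 16 h at 37 °C, 5% CO2 with compound from 10 uM top, 5-fold dilutions, 8 doses, in 0.1% DMSO medium. Lysates read overnight by HTRF p-EGFR antibodies; IC50 fitted to four-parameter curve against DMSO high control.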

SMILES strings stand for the structures.

This note sets out measurements from patent US20240425523A1, “Compounds for the Degradation of EGFR Kinase” (Beigene Switzerland GMBH, priority 2023, published 2024).

In general, DC50 refers to the concentration giving 50% degradation. The term Dmax denotes the largest share of the target that was removed. Lower therefore signals shallow degradation. By IC50 is commonly meant the concentration at which inhibition is half-maximal. Read a high IC50 as a need for much substance.

As for `COC[C@@H]1CN(c2cc3c(cc2OC)N/C2=N\C(=O)c4cc(C)nc(c4)-c4c(C)nn(C)c4OC[C@H]4CC[C@H](C4)CN23)CCN1C1CCN(c2cc(F)c([C@H]3CCC(=O)NC3=O)c(F)c2)CC1` [Example 151, (R)-3-(2,6-difluoro-4-(4-((S)-4-((7^1R,7^3S,E)-5^5-methoxy-1^1,1^3,2^6-trimethyl-3-oxo-5^2,5^3-dihydro-1^1H,5^1H-9-oxa-4-aza-5(2,1)-benzo[d]imidazola-2(2,4)-pyridina-1(4,5)-pyrazola-7(1,3)-cyclopentanacyclononaphane-5^6-yl)-2-(methoxymethyl)piperazin-1-yl)piperidin-1-yl)phenyl)piperidine-2,6-dione], in assay [1], half-maximal degradation (DC50) was put at 2.62 nM and the Dmax was determined as 88.5%. Besides, in assay [2], the “Imax (%)” value was 99.54% and the IC50 amounted to 1.02 nM. In assay [3], this molecule returned a DC50 of 1.68 nM and a Dmax of 90.6%. Further, in assay [4], the “Imax (%)” value was found to be 95.95% and it took 5.03 nM to reach half-maximal inhibition (IC50).

For the molecule `COC[C@@H]1CN(c2cc3c(cc2F)N/C2=N\C(=O)c4cc(C)nc(c4)-c4cnn(C)c4OC[C@H]4CCC(C4)CN23)CCN1C1CCN(c2cc(F)c([C@H]3CCC(=O)NC3=O)c(F)c2)CC1` [Example 87, (R)-3-(2,6-difluoro-4-(4-((S)-4-((7^1R,7^3S,E)-5^5-fluoro-1^1,2^6-dimethyl-3-oxo-5^2,5^3-dihydro-1^1H,5^1H-9-oxa-4-aza-5(2,1)-benzo[d]imidazola-2(2,4)-pyridina-1(4,5)-pyrazola-7(1,3)-cyclopentanacyclononaphane-5^6-yl)-2-(methoxymethyl)piperazin-1-yl)piperidin-1-yl)phenyl)piperidine-2,6-dione], the half-maximal degradation concentration (DC50) in assay [1] is 8.71 nM; in assay [3], 2.86 nM. The maximal degradation (Dmax) is 70.8% in assay [1] and 64.1% in assay [3]. The “Imax (%)” value in assay [2] is on record as 100.3%; in assay [4], 96.2%. Moreover, the figures for the IC50 in assay [2] and in assay [4] were 1.5 nM and 13.8 nM, respectively.

In assay [1], `COC[C@H]1CN(c2ccc3c(c2)N2CC4CC[C@H](COc5c(c(C)nn5C)-c5cc(cc(C)n5)C(=O)/N=C/2N3)C4)CCN1C1CCN(c2cc(F)c([C@H]3CCC(=O)NC3=O)c(F)c2)CC1` [Example 91, (R)-3-(2,6-difluoro-4-(4-((R)-2-(methoxymethyl)-4-((7R,7^3S,E)-1^1,1^3,2^6-trimethyl-3-oxo-5^2,5^3-dihydro-1^1H,5^1H-9-oxa-4-aza-5(2,1)-benzo[d]imidazola-2(2,4)-pyridina-1(4,5)-pyrazola-7(1,3)-cyclopentanacyclononaphane-5^6-yl)piperazin-1-yl)piperidin-1-yl)phenyl)piperidine-2,6-dione] registered a DC50 of 2.28 nM and a Dmax of 88.7%. Further, in assay [2], the “Imax (%)” value is 100.8% and the IC50 amounted to 2.2 nM. For the same molecule, in assay [3], the DC50 was 2.04 nM and the Dmax is 81.5%. Also, in assay [4], the “Imax (%)” value is 97.1% and the IC50 worked out at 3.5 nM.

On to `COCCn1nc(C)c2c1OC[C@H]1CC[C@H](C1)CN1/C(=N/C(=O)c3cc(C)nc-2c3)Nc2ccc(N3CCN(C4CCN(c5cc(F)c([C@H]6CCC(=O)NC6=O)c(F)c5)CC4)[C@@H](COC)C3)cc21` [Example 160, (R)-3-(2,6-difluoro-4-(4-((R)-4-((7^1R,7^3S,E)-1^1-(2-methoxyethyl)-1^3,2^6-dimethyl-3-oxo-5^2,5^3-dihydro-1^1H,5^1H-9-oxa-4-aza-5(2,1)-benzo[d]imidazola-2(2,4)-pyridina-1(4,5)-pyrazola-7(1,3)-cyclopentanacyclononaphane-5^6-yl)-2-(methoxymethyl)piperazin-1-yl)piperidin-1-yl)phenyl)piperidine-2,6-dione], for which, in assay [1], half-maximal degradation (DC50) was put at 3.01 nM and the Dmax stood at 88.2%. Also, in assay [2], the “Imax (%)” value was 95.87% and the IC50 was 0.59 nM. Further, in assay [3], the DC50 was 3.08 nM and the Dmax was 76.5%. Besides, in assay [4], the “Imax (%)” value turned out to be 94.19% and the IC50 amounted to 3.02 nM.

Take `Cc1cc2cc(n1)-c1c(C)nn(C)c1OC[C@H]1CC[C@H](C1)CN1/C(=N/C2=O)Nc2ccc(N3[C@@H](C)CN(C4CCN(c5cc(F)c([C@H]6CCC(=O)NC6=O)c(F)c5)CC4)C[C@@H]3C)cc21` [Example 198, (R)-3-(4-(4-((3S,5S)-3,5-dimethyl-4-((7^1R,7^3S,E)-1^1,1^3,2^6-trimethyl-3-oxo-5^2,5^3-dihydro-1^1H,5^1H-9-oxa-4-aza-5(2,1)-benzo[d]imidazola-2(2,4)-pyridina-1(4,5)-pyrazola-7(1,3)-cyclopentanacyclononaphane-5^6-yl)piperazin-1-yl)piperidin-1-yl)-2,6-difluorophenyl)piperidine-2,6-dione]: the DC50 worked out at 4.41 nM in assay [1] and 7.56 nM in assay [3]. Moreover, the results for the Dmax in assay [1] and in assay [3] were 100% and 89.7%, respectively. Moreover, the “Imax (%)” value in assay [2] is given as 102.48%; in assay [4] it was 101.37%. Besides, the concentration for half-maximal inhibition (IC50) in assay [2] amounted to 3.18 nM; in assay [4] it was 6.66 nM.

With `Cc1cc2cc(n1)-c1c(C)nn(C)c1OC[C@H]1CC[C@H](C1)CN1/C(=N/C2=O)Nc2ccc(N3CC4CCC3CN4C3CCN(c4cc(F)c([C@H]5CCC(=O)NC5=O)c(F)c4)CC3)cc21` [Example 193, (3R)-3-(2,6-difluoro-4-(4-(5-((7^1R,7^3S,E)-1^1,1^3,2^6-trimethyl-3-oxo-5^2,5^3-dihydro-1^1H,5^1H-9-oxa-4-aza-5(2,1)-benzo[d]imidazola-2(2,4)-pyridina-1(4,5)-pyrazola-7(1,3)-cyclopentanacyclononaphane-5^6-yl)-2,5-diazabicyclo[2.2.2]octan-2-yl)piperidin-1-yl)phenyl)piperidine-2,6-dione], in assay [1], half-maximal degradation (DC50) was put at 0.76 nM and the Dmax was 70.8%. Moreover, in assay [2], the “Imax (%)” value is reported as 100.43% and the IC50 was 2.74 nM. For the same molecule, in assay [3], it took 7.4 nM to reach half-maximal degradation (DC50) and the Dmax was 76.2%. In assay [4], the “Imax (%)” value was 101.04% and the IC50 turned out to be 2.35 nM.

For the molecule `Cc1cc2cc(n1)-c1c(C)nn(C)c1OC[C@H]1CC[C@H](C1)CN1/C(=N/C2=O)Nc2ccc(N3C[C@@H](C)N(C4CCN(c5cc(F)c([C@H]6CCC(=O)NC6=O)c(F)c5)CC4)C[C@H]3C)cc21` [Example 196, (R)-3-(4-(4-((2R,5R)-2,5-dimethyl-4-((7^1R,7^3S,E)-1^1,1^32^6-trimethyl-3-oxo-5^2,5^3-dihydro-1^1H,5^1H-9-oxa-4-aza-5(2,1)-benzo[d]imidazola-2(2,4)-pyridina-1(4,5)-pyrazola-7(1,3)-cyclopentanacyclononaphane-5^6-yl)piperazin-1-yl)piperidin-1-yl)-2,6-difluorophenyl)piperidine-2,6-dione], in assay [1], the 50% degradation concentration (DC50) is 3.21 nM and the Dmax was determined as 88.8%. Also, in assay [2], the “Imax (%)” value is 99.76% and it took 2.81 nM to reach half-maximal inhibition (IC50). Besides, in assay [3], half-maximal degradation (DC50) was put at 1.61 nM and the Dmax came to 91.9%. In addition, in assay [4], the “Imax (%)” value worked out at 85.84% and the IC50 came out at 3.09 nM.

Turning to `Cc1cc2cc(n1)-c1cnn(C)c1OC[C@H]1CC[C@H](C1)CN1/C(=N/C2=O)Nc2ccc(N3CCC(N4CC(Nc5cc(F)c([C@H]6CCC(=O)NC6=O)c(F)c5)C4)CC3)cc21` [Example 112, (R)-3-(4-((1-(1-((7^1R,7^3S,E)-1^1,2^6-dimethyl-3-oxo-5^2,5^3-dihydro-1^1H,5^1H-9-oxa-4-aza-5(2,1)-benzo[d]imidazola-2(2,4)-pyridina-1(4,5)-pyrazola-7(1,3)-cyclopentanacyclononaphane-5^6-yl)piperidin-4-yl)azetidin-3-yl)amino)-2,6-difluorophenyl)piperidine-2,6-dione], the DC50 in assay [1] was 0.41 nM; in assay [3] it was 2.2 nM. The results for the Dmax in assay [1] and in assay [3] were 67.5% and 72.8%, respectively. Besides, the “Imax (%)” value in assay [2] worked out at 98.9%; in assay [4], 104.4%. The values for the concentration for half-maximal inhibition (IC50) in assay [2] and in assay [4] were 0.4 nM and 15.4 nM, respectively.

As for `Cc1cc2cc(n1)-c1c(C)nn(C)c1OC[C@H]1CC[C@H](C1)CN1/C(=N/C2=O)Nc2ccc(N3C[C@@H](C)N(C4CCN(c5cc(F)c([C@H]6CCC(=O)NC6=O)c(F)c5)CC4)C[C@@H]3C)cc21` [Example 200, (R)-3-(4-(4-((2R,5S)-2,5-dimethyl-4-((7^1R,7^3S,E)-1^1,1^3,2^6-trimethyl-3-oxo-5^2,5^3-dihydro-1^1H,5^1H-9-oxa-4-aza-5(2,1)-benzo[d]imidazola-2(2,4)-pyridina-1(4,5)-pyrazola-7(1,3)-cyclopentanacyclononaphane-5^6-yl)piperazin-1-yl)piperidin-1-yl)-2,6-difluorophenyl)piperidine-2,6-dione], the DC50 in assay [1] was 1.87 nM; in assay [3], 2.1 nM. Also, the values for the Dmax in assay [1] and in assay [3] were 94.6% and 85.7%, respectively. Further, the “Imax (%)” value was 102.89% in assay [2] and 98.42% in assay [4]. In addition, the values for the IC50 in assay [2] and in assay [4] were 1.79 nM and below 0.128 nM, respectively.
